One assay has as its target T1, SCRM-MUTE heterodimer (Arabidopsis thaliana, UniProt Q9M8K6).
T1 construct: expressed in transfected cells; host or cells: yeast strain AH109
T1 sequence (Q9M8K6 1-202): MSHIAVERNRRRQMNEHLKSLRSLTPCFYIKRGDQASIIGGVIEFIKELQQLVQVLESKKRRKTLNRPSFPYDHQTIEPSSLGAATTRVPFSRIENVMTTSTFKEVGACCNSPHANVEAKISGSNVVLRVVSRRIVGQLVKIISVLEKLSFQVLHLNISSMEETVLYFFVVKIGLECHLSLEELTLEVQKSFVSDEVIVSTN
Briefly: Y2H growth and quantitative α-galactosidase assay. In kind it is cell-based. Particulars: for a-galactosidase: yeast MUTE+SCRM, individual replicates, listed as AYSJ929.

For another assay, the target named is T2, SCRM-SPCH heterodimer (Arabidopsis thaliana, UniProt Q700C7).
T2 construct: truncated SPCH and FAMA proteins lacking their N-terminal domain were used in yeast; expressed in transfected cells; host or cells: yeast strain AH109
T2 sequence (Q700C7 98-364 limits assumed): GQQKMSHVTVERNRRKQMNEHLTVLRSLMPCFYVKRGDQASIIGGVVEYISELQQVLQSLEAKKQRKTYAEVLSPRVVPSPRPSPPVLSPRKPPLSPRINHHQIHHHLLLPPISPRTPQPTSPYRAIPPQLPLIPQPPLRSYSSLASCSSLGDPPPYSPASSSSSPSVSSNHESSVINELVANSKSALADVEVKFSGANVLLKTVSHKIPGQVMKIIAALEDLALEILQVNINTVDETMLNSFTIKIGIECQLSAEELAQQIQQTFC
Briefly: Y2H growth and quantitative α-galactosidase assay. The class given is cell-based. Particulars: for a-galactosidase: yeast SPCH∆N+SCRM, individual replicates, listed as AYSJ929.

Results on 1 compound are retold here after PMC11500415, “Chemical inhibition of stomatal differentiation by perturbation of the master-regulatory bHLH heterodimer via an ACT-Like domain” (Nature Communications, 2024).

Several values for one entry are separate records, joined by “and”; a condition that tells them apart may be missing. Equal values may be shown once.

With `O=C1C(c2ccccc2)=NC(NS(=O)(=O)c2ccccc2)(c2ccccc2)N1S(=O)(=O)c1ccccc1` (stereo not shown) [Stomidazolone], the “effect in quantitative α-galactosidase assay” value at SCRM-MUTE heterodimer (0, 10, 50, 100 μM) is listed as “inhibits these stomatal bHLH heterodimers in a dose-dependent manner”; on SCRM-SPCH heterodimer (0, 10, 50, 100 μM) it was “slightly less impact”. Also, the “effect on association in Y2H growth assay” value is listed as “diminishes” at SCRM-MUTE heterodimer (50 μM, 1 mM 3-AT) and “diminishes” on SCRM-SPCH heterodimer (50 μM, 1 mM 3-AT, N-terminally truncated SPCH). The a-galactosidase at SCRM-MUTE heterodimer (10 µM) was 6.11 milliunits /(ml x cell) and 7.57 milliunits /(ml x cell) and 6.75 milliunits /(ml x cell); on SCRM-MUTE heterodimer (50 µM), 4.46 milliunits /(ml x cell) and 5.23 milliunits /(ml x cell) and 6.35 milliunits /(ml x cell); at SCRM-MUTE heterodimer (100 µM), 5.40 milliunits /(ml x cell) and 3.71 milliunits /(ml x cell) and 5.42 milliunits /(ml x cell); at SCRM-SPCH heterodimer (10 µM) it was 5.51 milliunits /(ml x cell) and 5.69 milliunits /(ml x cell) and 5.47 milliunits /(ml x cell); at SCRM-SPCH heterodimer (50 µM), 5.02 milliunits /(ml x cell) and 5.49 milliunits /(ml x cell) and 5.63 milliunits /(ml x cell); on SCRM-SPCH heterodimer (100 µM), 5.62 milliunits /(ml x cell) and 5.13 milliunits /(ml x cell).
